Source: a melting point compilation (Tetko et al.; mined from patent text by program, amines drawn as free bases though some values may be those of a salt)
Residues, ends and D or L forms follow the SMILES beside them. *: point of attachment. Boc = CC(C)(C)OC(=O)*; NHNH2 = NN*

melting point | Structure (SMILES)
164 to 167 °C | N#Cc1ccc(-c2c[nH]cn2)cc1
169 to 170 °C | COc1cccc(CC(NC(C)=O)C(=O)O)c1OCc1ccccc1 (racemic)
75 to 80 °C | COc1ccc(S(=O)(=O)CC(O)(CS(=O)(=O)c2ccc(OC)cc2)C(=O)NO)cc1
128 to 129 °C | COC(=O)c1ccc2[nH]c(C(=O)OCc3ccccc3)cc2c1
219 °C | Nc1nc(N)c(-c2ccc(Cl)cc2Cl)c(Cl)n1
203 to 205 °C | COc1cc(-n2nc(C#N)cc2-c2ccc(S(C)(=O)=O)cc2)ccc1Cl
90 to 95 °C | CSc1nc(NCCC(C)C)c2[nH]nc(C)c2n1
178 °C | C=CCS(=O)(=O)c1cccnc1S(N)(=O)=O
160 to 164 °C | CCc1c(-c2ccc(O)cc2)n(Cc2ccc(OCCN3CCCCC3)cc2)c2ccc(O)cc12
85 to 87 °C | CS(=O)(=O)OC1CN(C(c2ccccc2)c2ccccc2)C1
100 °C | CC(=C(F)c1ccccc1)c1ccc2c(c1)C(C)(C)CCC2(C)C
61 to 63 °C | CCCCCCOC(C)c1ccc(-c2ccc(OCc3ccccc3)cc2)cc1 (single isomer, unassigned; (+))
112 to 113 °C | O=C(Cc1ccnc(Cl)n1)c1ccc(F)cc1
46 to 47 °C | CC(C)Nc1nc(Cl)nc(Cl)n1
180 to 182 °C | NC(=O)C1Cc2c([nH]c3ccccc23)C(c2ccccc2)N1C(=O)CCl (centres undefined)
43 to 44 °C | CCCCOc1cc(Cl)c(OCCCC)cc1N

melting point | Structure (SMILES)
165 °C | CC(C)C(=O)c1ccc(OCc2ccc(CNC(=O)c3cn(C)cn3)cc2)c(C(F)(F)F)c1O
83 to 86 °C | COC(=O)C1=C(SC)N(c2ccc(Cl)cc2Cl)CCC1
76 °C | Cc1cc(CCCCCCCOc2ccc(C(=O)OC(C)(C)C)cc2)on1
86.5 to 87.5 °C | COC(=O)CCCCCCCCCCCCCCCCCCCN1C(=O)c2ccccc2C1=O
156 to 158 °C | CCOC(=O)C1=C(C)NC(COC)=C(C(=O)OCC)C1c1ccc(S(C)(=O)=O)cc1 (centres undefined)
147 to 150 °C | COc1cc2ncc(C#N)c(Nc3cccc(NC(C)=O)c3)c2cc1OC
56 to 58 °C | CCOP(=O)(OCC)c1cccc(C)c1I
77 to 78 °C | CCCCCCOC(=O)CCCC(C)(C)c1cc(O)c(C(C)(C)CCCC(=O)OCCCCCC)cc1O
260 to 262 °C | COc1ccc(OC)c2c1C(=O)c1ccc(-c3nnn[nH]3)cc1C2=O
250 to 251 °C | Cc1ccc(-c2cc(S(=O)(=O)c3ccc(N)cc3)cc(N3CCCC3)n2)cc1
162 to 165 °C | COc1ccc(C2(CC(=O)O)CNC(=O)C2)cc1OC (centres undefined)
110 to 112 °C | COc1ccc(COc2c(C)c(C)c3c(c2C)C(c2ccc(N4CCOCC4)cc2)C(C)(C)O3)cc1 (centres undefined)
210 to 213 °C | CC(C)(C)OC(=O)NC1CCc2cc(C(=O)O)ccc2C1 (centres undefined)
54 to 55 °C | CCCCCCCCCCCCCCCCCCOc1cc(C(=O)OC)cc(C(=O)OC)c1
155 to 158 °C | O=C1CC(c2cccc(-n3ccnc3)c2)=Nc2cc(N3CC[C@@H](O)C3)c(-c3ccc(F)cc3)cc2N1
145 to 146 °C | Cc1cccc2c1nc(COc1ccc(Cl)cc1)n2CCC(C)C(=O)NNCc1ccccc1 (racemic)

The next lines start with the compound.

Structure (SMILES) | melting point
COc1c(C)c(Cc2ccc(Cl)cc2)c(OC)c2ccccc12 | 101 to 102 °C
Cn1nnnc1SCC(=O)Nc1ccc(C2CCCCC2)cc1 | 204 to 205 °C
COC(=O)C(CN(c1ccccc1)c1ccccn1)N(C(=O)OC(C)(C)C)C(=O)OC(C)(C)C (centres undefined) | 103 °C
COC(=O)C1C(=O)CC2CCC1N2C (mixture of isomers) | 104 to 107 °C
Nc1ccc2c(c1)CC(N)CC2 (single isomer, unassigned; (+)) | 33 to 34 °C
O=C1c2ccccc2C(=O)N1C[C@H](O)CCl | 100 to 101 °C
CCCNC(=O)c1nc(-c2ccccc2)c(-c2ccc(=O)n(Cc3ccccc3)n2)s1 | 120 to 121 °C
CCCc1c(C(=O)C(C)C)c2ccc(C(=O)O)cc2n1Cc1ccccc1F | 212 to 213 °C
C[Si](C)(C)C1=CC(=O)C([Si](C)(C)C)=CC1=O | 180 °C
CSc1cccc2c1CC(=O)N2 | 198 °C
CC(C)(CO)OCc1nn(Cc2ccccc2)c2ccccc12 | 52 to 53 °C
CCCCCCCCCCCCCCCCOC(=O)NCCN1CCOCC1 | 65 °C
Oc1cc(-c2ccc(F)cc2)nc(-c2ccccn2)n1 | 197 to 198 °C
COC(=O)C(C)(C)c1ccc(OCCN)cc1 | 108 to 112 °C
c1ccc(C(c2ccccc2)(c2ncccn2)n2ccnc2)cc1 | 138 to 143 °C
COC(=O)/C=C(\C)c1ccc2c(c1)C(C)(C)OC(=O)N2 | 131 to 132 °C
CCCC(C)(C)c1cc(N2CCC(C)C2=O)no1 (centres undefined) | 30 to 31 °C
CCOCc1nc2c(N)nc3cc(CCCO)ccc3c2n1CC(C)(C)O | 177 to 178 °C
CCCNC(=O)Nc1ccccc1C(=O)OC | 102 °C
c1ccc(N(c2ccccc2)c2ccc3c4c(cccc24)CC3)cc1 | 168 to 170 °C
CNC(=O)c1cc(CN2C(=O)C3(COc4cc5c(cc43)OCO5)c3ccccc32)oc1C(F)(F)F (centres undefined) | 202 to 203 °C
CCNC(=O)Oc1ccc2c(N(C)CCN3CCOCC3)noc2c1 | 99 to 100 °C
FC(F)(F)c1ccc2c(c1)ncn2-c1cccc(-n2ccnc2)c1 | 177 to 180 °C

Structure (SMILES) | melting point
COc1nc2cc(Cl)c(Cl)c(-n3cnnc3-c3cccnc3)c2nc1OC | 206 to 207 °C
CC1(C)CC(=C(c2ccc(O)cc2)c2ccc(/C=C/C(=O)O)cc2)CC(C)(C)C1 | 219 to 220 °C
Nc1ncc(-c2ccccc2)nc1SC1CCCC1 | 92 to 94 °C
CSC(=C[N+](=O)[O-])Nc1ccc(Cl)nc1 | 169 to 171 °C
Cc1c(C)c(N2Cc3cc4c(cc3C2)OCO4)c(C)c2c1OC(C)(C)C2c1ccc(C(C)C)cc1 (centres undefined) | 175 to 177 °C
COc1ccc(-c2ccc(C(=O)Nc3cccc(CC(=O)O)c3)o2)cc1 | 179 to 180 °C
O=C(O)CCCc1ccc(-c2ccc([N+](=O)[O-])cc2)cc1 | 160 to 161 °C
CC(=O)Nc1c(C(O)(C(F)(F)F)C(F)(F)F)ccc2ccccc12 | 155 to 156 °C
COc1ccc2c(c1)C(C)(CC#N)C(=O)N2C (centres undefined) | 75.5 to 76 °C
CNC(=O)N(C)C(=O)Nc1ccccc1 | 93 to 95 °C
O=c1ccoc2c3c(ccc12)OCC(CO)O3 (centres undefined) | 125 °C
CC(=O)OCC1OC(n2cc(Cc3ccc(OC(F)(F)F)cc3)c3c(Cl)cccc32)C(OC(C)=O)C(OC(C)=O)C1OC(C)=O (centres undefined) | 193 to 194 °C
Oc1ccc(C(F)(F)F)cc1-n1nc2ccccc2n1 | 119 to 120 °C
COC(=O)C(C)Oc1ccccc1S(=O)(=O)NC(=O)Nc1nc(C)cc(C)n1 (centres undefined) | 200 to 203 °C
NC(=O)c1cc2c(c(C(=O)O)c1)NCCC2 | 268 to 269 °C
COc1ccc2c(c1)C(=O)CCC21CCC(=O)NC1=O (centres undefined) | 214 to 215 °C
CS(=O)(=O)Nc1nc2nc(NC3CCOCC3)ncc2cc1Oc1ccc(F)cc1F | 199 to 204 °C
CC1(Oc2ccccc2)CN(Cc2ccc(COc3cccc4c3CN(C3CCC(=O)NC3=O)C4=O)cc2)C1 (centres undefined) | 127 to 129 °C
CC(=O)OC1CSC(Oc2ccc(-c3ccco3)nc2)C(OC(C)=O)C1OC(C)=O (centres undefined) | 133 °C
CCOC(=O)C1=COc2cc(OC(C)=O)ccc2O1 | 88 °C
CC(C)n1c(=O)c(C(=O)NCC2CCN(CC3(O)CCOCC3)CC2)cc2c(Cl)cccc21 | 227 °C
Cc1oc(-c2ccco2)nc1CCOc1ccc(C#N)cc1 | 105 to 108 °C
CSCCC(NC(=O)C(CCCCNC(=O)OC(C)(C)C)NC(=O)C(Cc1ccc(O)cc1)NC(=O)C1CCCN1)C(=O)NN (centres undefined) (H-PYK(Boc)M-NHNH2; configuration not given here) | 206 to 207 °C

Structure (SMILES) | melting point
CCCc1c(OCCOc2ccc([N+](=O)[O-])cc2)ccc(C(C)=O)c1O | 124 to 125 °C
CC(=O)NCCCCC(NC(C)=O)C(=O)O (racemic) | 138 to 139 °C
Cc1cc(O)nc(CCCCOc2nccc(NC(N)=NCC(F)(F)F)n2)n1 | 191 to 193 °C
CC1(c2ccccc2)OC(=S)Nc2ccc(-c3cccc(Cl)c3)cc21 (centres undefined) | 202 to 203 °C
CCCc1nc(SC)c(C(O)(C(=O)O)c2ccccc2)n1Cc1ccc(-c2ccccc2S(=O)(=O)NC(=O)NCc2ccccc2)cc1 (centres undefined) | 170 °C
CCCCC(C(O)c1ccc(Cl)cc1)n1cncn1 (centres undefined) | 93 to 94 °C
COc1ccc(CCOC(=O)NC(=O)C(c2ccccc2)c2ccccc2)cc1OC | 144 °C
CC(C)(C)c1ccc(S(=O)(=O)C(CCl)Sc2ccccc2)cc1 (centres undefined) | 104 to 106 °C
C=CCn1c(SC(Cl)=C(Cl)C#N)nnc1C(F)(F)F | 45 to 48 °C
CCCc1nc2ccnn2c(O)c1Cc1ccc(-c2ccccc2-c2nnn[nH]2)cc1 | > 320 °C
CC(C)n1nc(-c2sc(NC(=O)c3ccc(CCl)cc3)nc2-c2ccccc2)ccc1=O | > 250 °C
CCCCc1cn(-c2ccccc2C(C)C)c(=O)n1Cc1ccc(-c2ccccc2-c2nnn[nH]2)cc1 | 167 to 168 °C
Cc1ccc(C)c(OCc2ccccc2C(=NOC(F)F)C(N)=O)c1 | 153 to 156 °C
CC(C)Cn1c(CNC(=O)OC(C)(C)C)c(-c2ccc(Cl)cc2)c2cc(/C=C/C(=O)O)ccc2c1=O | 147 to 149 °C
CCCCCCCCCCCCCCCCSCC(C)(C)CO | 25 to 28 °C
COc1ccc(-c2[nH]cnc2-c2cc(OC)c(N)c(OC)c2)cc1O | 142 to 144 °C
COc1nc(OC)c(C(C)C)c(C(=O)c2cc(C)cc(Cl)c2)n1 | 119 to 120 °C
CC1=C(C(=O)N(C)C)C(c2ccccc2)C(C(N)=O)=C(N)N1 (centres undefined) | 236 °C
CN1CCN(c2cccc3ccc(NC(=O)Nc4ccccc4)cc23)CC1 | 213 to 214 °C
Cc1cccnc1C(=O)c1[nH]c2cc(Cl)ccc2c1NC(=O)CC(C)C | 142 to 144 °C
COC(COC(C)=O)C1=CCC2C3CCC4=CC(=O)CCC4(C)C3CCC12C (centres undefined) | 115 to 157 °C
